From patent US20060069132A1, “Azolecarboxamide herbicides” (priority 2004, published 2006)

How the values were obtained:
morningglory = test: Test B pre-/postemergence herbicide test; type: in vivo, Ipomoea coccinea; conditions: for Morningglory plant response rating: postemergence, scale 0 (no effect) to 100 (complete control)
In short: (§1)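 Flooded paddy rice and barnyardgrass were treated at the 2-leaf stage; upland plantings received compound either on sown seed or on 1- to 4-leaf seedlings. All were kept 13–15 days in a greenhouse and scored visually, 0–100, relative to untreated plants.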

barnyardgrass [1] = test: Test C flooded paddy test; type: in vivo, Echinochloa crus-galli
In short: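 Greenhouse test with a 12–14 day hold after application and visual comparison with controls. Emerged plants were 1- to 4-leaf stage (2–18 cm) when sprayed postemergence, and the paddy barnyardgrass was at 2 leaves under flooded conditions. 100 = complete control.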

[2] = tested on: smallflower umbrella sedge; test: Test C flooded paddy test; type: in vivo, Cyperus difformis
wild oat = test: Test B postemergence herbicide test; type: in vivo, Avena fatua; conditions: postemergence, visual rating, scale 0 (no effect) to 100 (complete control)
In short: (§2)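 Formulated test chemicals went onto postemergence plants measuring 2 to 18 cm, at one to four leaves. For the paddy assay, species had reached two leaves. Scoring took place 13–15 days later by eye, relative to untreated plants, using 0 for no effect up to 100 for full control.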

rice [3] = test: Test B flooded paddy test; type: in vivo, Oryza sativa; conditions: 1000 g ai/ha, visual rating, scale 0 to 100 (0 no effect, 100 complete control), 13 to 15 days
In short: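 Visual ratings, 0 (no effect) to 100 (complete control), made versus controls after 13–15 d greenhouse. Paddy plants treated at 2-leaf stage; postemergence plants at 1- to 4-leaf stage, 2–18 cm tall.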

rice [4] = test: Test C flooded paddy test; type: in vivo, Oryza sativa
In short: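 Postemergence sprays applied to plants 2 to 18 cm tall (1- to 4-leaf stage); paddy species grown to 2-leaf stage under flooding. After 12 to 14 days in greenhouse, visual rating versus untreated controls on 0–100 scale (0 no effect, 100 complete control).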

wheat = test: Test B postemergence herbicide test; type: in vivo, Triticum aestivum; set-up: key to Wheat plant response rating: 0 = no effect, 100 = complete control; conditions: postemergence, visual rating, scale 0 (no effect) to 100 (complete control)
In short: as §2

giant foxtail = test: Test B pre-/postemergence herbicide test; type: in vivo, Setaria faberi; conditions: for Foxtail, Giant plant response rating: postemergence, scale 0 (no effect) to 100 (complete control)
In short: (§3)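 Seeds were planted and treated preemergence with compounds formulated in a non-phytotoxic solvent mixture containing surfactant, while plants at the 1- to 4-leaf stage (2 to 18 cm) received postemergence sprays. Flooded paddy plants were grown to the 2-leaf stage. After 13 to 15 days in a greenhouse, injury was visually rated 0–100 against untreated controls.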

pigweed = test: Test B pre-/postemergence herbicide test; type: in vivo, Amaranthus retroflexus; conditions: for Pigweed plant response rating: postemergence, scale 0 (no effect) to 100 (complete control)
In short: as §3

cocklebur = test: Test B pre-/postemergence herbicide test; type: in vivo, Xanthium strumarium; conditions: for Cocklebur plant response rating: postemergence, scale 0 (no effect) to 100 (complete control)
In short: as §1

corn = test: Test B pre-/postemergence herbicide test; type: in vivo, Zea mays; conditions: for Corn plant response rating: postemergence, scale 0 (no effect) to 100 (complete control)
In short: as §3

barnyardgrass [5] = test: Test B pre-/postemergence herbicide test; type: in vivo, Echinochloa crus-galli; conditions: for Barnyardgrass plant response rating: postemergence, scale 0 (no effect) to 100 (complete control)
In short: as §1

velvetleaf = test: Test B pre-/postemergence herbicide test; type: in vivo, Abutilon theophrasti; conditions: for Velvetleaf plant response rating: postemergence, scale 0 (no effect) to 100 (complete control)
In short: as §3

[6] = tested on: small flower umbrella sedge; test: Test B flooded paddy test; type: in vivo, Cyperus difformis; conditions: 1000 g ai/ha, visual rating, scale 0 to 100 (0 no effect, 100 complete control), 13 to 15 days
In short: (§4)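 After treating 2-leaf paddy plants or 2–18 cm postemergence plants (1 to 4 leaves) with formulated chemical, researchers kept them in a greenhouse for 13–15 days. Effects were judged visually versus controls: 0 indicates none, 100 total control.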

blackgrass = test: Test B postemergence herbicide test; type: in vivo, Alopecurus myosuroides; conditions: postemergence, visual rating, scale 0 (no effect) to 100 (complete control)
In short: as §4

Surinam grass = test: Test B pre-/postemergence herbicide test; type: in vivo, Urochloa decumbens; conditions: for Surinam Grass plant response rating: postemergence, scale 0 (no effect) to 100 (complete control)
In short: as §3

large crabgrass = test: Test B pre-/postemergence herbicide test; type: in vivo, Digitaria sanguinalis; conditions: for Crabgrass, Large plant response rating: postemergence, scale 0 (no effect) to 100 (complete control)
In short: as §3

ducksalad [7] = test: Test B flooded paddy test; type: in vivo, Heteranthera limosa; conditions: 1000 g ai/ha, visual rating, scale 0 to 100 (0 no effect, 100 complete control), 13 to 15 days
In short: as §4

ducksalad [8] = test: Test C flooded paddy test; type: in vivo, Heteranthera limosa
rice [9] = test: Test B pre-/postemergence herbicide test; type: in vivo, Oryza sativa; conditions: 0 = no effect, 100 = complete control, preemergence
In short: as §3

barnyardgrass [10] = test: Test B flooded paddy test; type: in vivo, Echinochloa crus-galli; conditions: 1000 g ai/ha, visual rating, scale 0 to 100 (0 no effect, 100 complete control), 13 to 15 days
In short: as §4

lambsquarters = test: Test B pre-/postemergence herbicide test; type: in vivo, Chenopodium album; conditions: for Lambsquarters plant response rating: postemergence, scale 0 (no effect) to 100 (complete control)
In short: as §3

[11] = 125 g ai/ha, 0 = no effect, 100 = complete control, preemergence
[12] = 500 g ai/ha, visual rating, 0 = no effect, 100 = complete control, preemergence
[13] = 62 g ai/ha, scale 0 to 100 (0 no effect, 100 complete control)
[14] = 125 g ai/ha, scale 0 to 100 (0 no effect, 100 complete control)
[15] = 250 g ai/ha, scale of 0 to 100, 0 is no effect, 100 is complete control
[16] = 500 g ai/ha, visual rating after 12 to 14 days, scale 0 to 100 (0 no effect, 100 complete control)

CCc1nc(C(C)(C)C)sc1C(=O)Nc1cccc(C(=O)N(C)C)c1 [Compound 228]
Morningglory plant response rating (0 to 100 scale) (morningglory; [11]): 10 | Plant response rating, Morningglory (morningglory; [12]): 40 | Morningglory plant response rating (morningglory; 125 g ai/ha, visual rating): 70 | Morningglory plant response rating (morningglory; 500 g ai/ha, visual rating): 80 | Barnyardgrass plant response rating (barnyardgrass [1]; [13]): 80 | Barnyardgrass plant response rating (barnyardgrass [1]; [14]): 85 | Barnyardgrass plant response rating (barnyardgrass [1]; [15]): 95 | Plant response rating, Barnyardgrass (barnyardgrass [1]; [16]): 95 | Sedge, Umbrella plant response rating [2, 13]: 80 | Sedge, Umbrella plant response rating [2, 14]: 80 | Sedge, Umbrella plant response rating [2, 15]: 80 | Plant response rating, Sedge, Umbrella [2, 16]: 85 | Oat, Wild plant response rating (wild oat; 125 g ai/ha): 40 | Oat, Wild plant response rating (wild oat; 500 g ai/ha): 50 | Rice plant response rating (rice [3]): 90 | Rice plant response rating (rice [4]; [13]): 75 | Rice plant response rating (rice [4]; [14]): 80 | Rice plant response rating (rice [4]; [15]): 80 | Plant response rating, Rice (rice [4]; [16]): 85 | Wheat plant response rating (wheat; 125 g ai/ha): 30 | Wheat plant response rating (wheat; 500 g ai/ha): 40 | Foxtail, Giant plant response rating (0 to 100 scale) (giant foxtail; [11]): 70 | Plant response rating, Foxtail, Giant (giant foxtail; [12]): 100 | Foxtail, Giant plant response rating (giant foxtail; 125 g ai/ha, visual rating): 30 | Foxtail, Giant plant response rating (giant foxtail; 500 g ai/ha, visual rating): 50 | Pigweed plant response rating (0 to 100 scale) (pigweed; [11]): 90 | Plant response rating, Pigweed (pigweed; [12]): 100 | Pigweed plant response rating (pigweed; 125 g ai/ha, visual rating): 50 | Pigweed plant response rating (pigweed; 500 g ai/ha, visual rating): 80 | Cocklebur plant response rating (0 to 100 scale) (cocklebur; [11]): 30 | Plant response rating, Cocklebur (cocklebur; [12]): 80 | Cocklebur plant response rating (cocklebur; 125 g ai/ha, visual rating): 30 | Cocklebur plant response rating (cocklebur; 500 g ai/ha, visual rating): 80 | Corn plant response rating (0 to 100 scale) (corn; [11]): 60 | Plant response rating, Corn (corn; [12]): 80 | Corn plant response rating (corn; 125 g ai/ha, visual rating): 10 | Corn plant response rating (corn; 500 g ai/ha, visual rating): 30 | Barnyardgrass plant response rating (0 to 100 scale) (barnyardgrass [5]; [11]): 80 | Plant response rating, Barnyardgrass (barnyardgrass [5]; [12]): 100 | Barnyardgrass plant response rating (barnyardgrass [5]; 125 g ai/ha, visual rating): 30 | Barnyardgrass plant response rating (barnyardgrass [5]; 500 g ai/ha, visual rating): 70 | Velvetleaf plant response rating (0 to 100 scale) (velvetleaf; [11]): 100 | Plant response rating, Velvetleaf (velvetleaf; [12]): 100 | Velvetleaf plant response rating (velvetleaf; 125 g ai/ha, visual rating): 60 | Velvetleaf plant response rating (velvetleaf; 500 g ai/ha, visual rating): 80 | Sedge, Umbrella plant response rating [6]: 80 | Blackgrass plant response rating (blackgrass; 125 g ai/ha): 30 | Blackgrass plant response rating (blackgrass; 500 g ai/ha): 40 | Surinam Grass plant response rating (0 to 100 scale) (Surinam grass; [11]): 60 | Plant response rating, Surinam Grass (Surinam grass; [12]): 100 | Surinam Grass plant response rating (Surinam grass; 125 g ai/ha, visual rating): 20 | Surinam Grass plant response rating (Surinam grass; 500 g ai/ha, visual rating): 40 | Crabgrass, Large plant response rating (0 to 100 scale) (large crabgrass; [11]): 60 | Plant response rating, Crabgrass, Large (large crabgrass; [12]): 100 | Crabgrass, Large plant response rating (large crabgrass; 125 g ai/ha, visual rating): 20 | Crabgrass, Large plant response rating (large crabgrass; 500 g ai/ha, visual rating): 40 | Ducksalad plant response rating (ducksalad [7]): 90 | Ducksalad plant response rating (ducksalad [8]; [13]): 80 | Ducksalad plant response rating (ducksalad [8]; [14]): 85 | Ducksalad plant response rating (ducksalad [8]; [15]): 90 | Plant response rating, Ducksalad (ducksalad [8]; [16]): 90 | Rice plant response rating (0 to 100 scale) (rice [9]; 125 g ai/ha): 80 | Plant response rating, Rice (rice [9]; 500 g ai/ha, visual rating): 90 | Barnyardgrass plant response rating (barnyardgrass [10]): 90 | Lambsquarters plant response rating (0 to 100 scale) (lambsquarters; [11]): 100 | Plant response rating, Lambsquarters (lambsquarters; [12]): 100 | Lambsquarters plant response rating (lambsquarters; 125 g ai/ha, visual rating): 70 | Lambsquarters plant response rating (lambsquarters; 500 g ai/ha, visual rating): 80
